Assay results as given in patent US20060216299A1, “Cell cycle targets and peptides” (Rigel Pharmaceuticals, Inc., priority 2002, published 2006).
Where no end group is shown, it is not given here.

Columns and labels:
[1] = test system: A549.tTA cells; assay: Cell tracker assay (Dil) of GFP fusion peptides; assay type: cell-based; conditions: for anti-proliferative effect (cell tracker assay, in words): GFP-fused peptides expressed in A549.tTA cells; for cell death after infection of retrovirus encoding GFP fused peptides: A549.tTA cells, data not shown
Description: A549.tTA cells were infected with tet-regulatable retroviruses expressing GFP fusion peptides, stained with the cell tracker dye, Dil, and incubated at 37° C. for five days. After the incubation, fluorescent intensity of GFP and Dil was analyzed with MoFlo. A growth ratio was obtained as the ratio of mean Dil fluorescent intensity for the GFP positive population relative to that of the GFP negative population.
Effect of GFP fused peptides and their mutants. GFP fused peptides (#40, #41, #88 and their mutants) expressing A549.tTA cells were stained with Dil and fluorescent intensity of GFP and Dil was examined with MoFlo. A growth ratio was obtained as described above. Mutated residues were underlined. Amino acid sequences of #40, #41, and #88 were aligned with leucine-rich motifs of HIV-1 Rev (amino acid position 75 to 84, gi|16118296|gb|AAL12672.1|), HTLV-1 Rex (amino acid position 82 to 93, gi|7963889|gb|AAF71372.1), Mitogen-activated protein kinase kinase 1, MAPKK, (amino acid position 33 to 43, gi|5579478|ref|NP_002746.1|), Human homologue of mouse double minute 2, Hdm-2, (amino acid position 190 to 200, gi|4505137|ref|NP_002383.1|), and Protein kinase inhibitor, PKI (amino acid position 38 to 48, gi|203271|gb|AAA40867.1|).
Effect of GFP fused peptides and their mutants. A549.tTA cells were infected with retroviruses encoding GFP fusion peptides (#38 and its mutants) and stained with the cell tracker dye, Dil. After the infection, fluorescent intensity of GFP and Dil was examined with MoFlo. A growth ratio was obtained as the ratio of mean Dil fluorescent intensity for the GFP positive population relative to that of the GFP negative population and data are shown as mean±SE in duplicate. Mutated residues or non-identical residues of the C-terminus of cell division cycle 42 isoform 2, CDC42C, (amino acid position 183 to 191, gi|16357472|ref|NP_426359.1|) to #38 were underlined. As controls, entire GFP-C20 library, dsGFP and GFP fused p21C expressing A549.tTA cells were used.

[2] = test system: A549.tTA cells; assay: Cell cycle analysis (Hoechst 33258) of cells expressing GFP fusion peptides; assay type: cell-based, human; conditions: GFP low (R1) and GFP high (R2) populations
Description: A549.tTA cells expressing GFP fusion peptides were fixed with Cell Fixation/Permeabilization Kits (BD bioscience, Lexington, Ky., U.S.A.) as manufacturer's recommendation and stained with 5 mM Hoechst 33258 (Sigma, St. Louis, Mo., U.S.A.). GFP and Hoechst fluorescent intensity was analyzed with MoFlo.

[3] = test system: A549 lung carcinoma cells; assay: Fluorescence microscopy examination of A549 cells exposed to lys7-peptides (nuclei, apoptosis, cell cycle stage, 48 hours); assay type: cell-based, human; conditions: for number of observed cell nuclei remaining: A549 cells, 48 hours exposure, increasing doses; for cell cycle stage distribution: asynchronously growing A549 cells, 48 hours, remaining cells that have not undergone apoptosis
Description: A549 tumor cells (American Type Culture Collection, Fairfax Va.) were plated at 2000 cells per well in 96 well plates with F12k media supplemented with 10% fetal bovine serum and 1% penicillin/streptomycin and allowed to grow for 24 hours. Peptide dissolved in media was added to the cells to a final concentration of 0.8 to 100 uM in triplicate. Following incubation with peptide for 24 or 48 hours, cells were fixed with 3.7% formaldehyde for 30 minutes, rinsed in PBS and stained with DAPI (Molecular Probes, OR) to label nuclear DNA. Digital images of the labeled nuclei in each well were taken using a Zeiss Axiovert microscope, UV filter set and Photometrics camera.

[4] = test system: A549 cells expressing GFP fusion #38 and #41; assay: Displacement of cellular localization of GFP fusion peptides by synthetic analogues; assay type: cell-based, human; conditions: 100 μM peptide, 5 hours
Description: GFP fused #38, #40, and #41 were concentrated at the plasma membrane and granular cytoplasmic structures. […] We examined whether synthetic analogues can displace cellular localization of GFP fusion peptides. A549 cells expressing GFP fusion #38 and #41 were incubated with 100 μM of K7—#41, K7—#41M and K7—#40 for 5 hours and GFP localization was analyzed using a fluorescent microscope.

[5] = test system: A549 cells; assay: High content imaging of anti-proliferative synthetic K7 peptides (nuclei and apoptotic nuclei, 24 hours); assay type: cell-based, human
Description: A549 cells (American Type Culture Collection (ATCC), Manassas, Va., U.S.A.) were plated at 2000 cells/well in 96 well plates with F12K media supplemented with 10% fetal bovine serum and 1% penicillin/streptomycin and allowed to grow for 24 hours. Peptide dissolved in media was added to the cells to a final concentration ranging from 0.8 to 25 uM in triplicate. Following incubation with peptide for 24 hours, cells were fixed with 3.7% formaldehyde for 30 minutes, rinsed in PBS and stained with DAPI (Molecular Probes) to label nuclear DNA. Digital images were taken of the labeled nuclei in each well using a Zeiss Axiovert microscope, UV filter set and Photometrics camera.

[6] = Table 2, GFP fusion #38 and mutants in A549.tTA cells, ratio of mean Dil intensity, GFP positive relative to GFP negative, duplicate
[7] = Table 1, GFP fused peptides in A549.tTA cells, ratio of mean Dil fluorescent intensity, GFP positive relative to GFP negative population, five days

Substance | anti-proliferative effect (cell tracker assay, in words) [1] | Growth Ratio (mean ± SE) [1, 6] | Growth Ratio (mean ± SE) [1, 7] | other results
AALEPPETQPKRKCCIF [CDC42C, C-terminal 17 residues of cell division cycle 42 isoform 2, expressed as GFP-fused peptide, reference compound] | no significant anti-proliferative activity | 1.3 ± 0.1 | – | –
ASGLLKLVQAKRKCCIS (cysteine pairing not given here; also: GFP fusion) [#38(T1A)] | – | 3.5 ± 0.2 | – | –
GRGCIFRWRRGARGMARAFK (also: GFP fusion) [#41(L12A/M16A/L18A)] | no significant localization or anti-proliferative effect | – | 1.1 ± 0.1 | –
GRGCIFRWRRGLRGMARAFK (also: GFP fusion) [#41(M16A/L18A)] | reduced the anti-proliferative effect | – | 1.5 | –
GRGCIFRWRRGLRGMMRAFK (also: GFP fusion) [#41(L18A)] | partial loss of the anti-proliferative effect | – | 1.7 | –
GRGCIFRWRRGLRGMMRLFK (also: GFP fusion) [#41, anti-proliferative peptide tested as GFP fusion] | significant inhibitors of cell proliferation | – | 2.7 ± 0.2 | cell cycle profile (DNA content, Hoechst 33258) [2]: arrested in G0/G1; cell death after infection of retrovirus encoding GFP fused peptides [1]: did not observe massive cell death
KRRQTSMTDFYHSKRRLIFSKRKP [p21C, reference compound] | significant antiproliferative effect | 4.5 ± 0.8 | 4.5 ± 0.8 | –
QAKRKCCIS ({GFP}-QAKRKCCIS; cysteine pairing not given here; also: fused to GFP C-terminus) [#38NΔ(1-8)] | – | 1.5 ± 0.1 | – | –
RLRRICSGILLARRIAGAFVRPVRP (also: GFP fusion) [#88(I12AILI6A/118A)] | – | – | 1.1 ± 0.1 | –
RLRRICSGILLIRRIAGAFVRPVRP (also: GFP fusion) [#88(L16A/L18A)] | – | – | 1.1 | –
RLRRICSGILLIRRILGAFVRPVRP (also: GFP fusion) [#88(118A)] | – | – | 1.5 | –
RLRRICSGILLIRRILGIFVRPVRP [#88] | significant inhibitors of cell proliferation | – | 2.7 ± 0.4 | cell cycle profile (DNA content, Hoechst 33258) [2]: no significant change in the DNA content profile; cell death after infection of retrovirus encoding GFP fused peptides [1]: did not observe massive cell death
RWDPTRLLRARFARALVRRSRPVRP (also: GFP fusion) [#40(F10A/L13A/M15A)] | – | – | 1.3 ± 0.1 | –
RWDPTRLLRFRFARALVRRSRPVRP (also: GFP fusion) [#40(L13A/M15A)] | – | – | 1.6 ± 0.2 | –
RWDPTRLLRFRFLRALVRRSRPVRP (also: GFP fusion) [#40(M15A)] | – | – | 2.0 | –
RWDPTRLLRFRFLRMLVRRSRPVRP (also: GFP fusion) [#40, anti-proliferative peptide tested as GFP fusion] | significant inhibitors of cell proliferation | – | 2.4 ± 0.3 | cell cycle profile (DNA content, Hoechst 33258) [2]: no significant change in the DNA content profile; cell death after infection of retrovirus encoding GFP fused peptides [1]: did not observe massive cell death
TAGLLKLVQAKRKCCIS (cysteine pairing not given here; also: GFP fusion) [#38(S2A)] | enhanced | 5.5 ± 0.8 | – | –
TSALLKLVQAKRKCCIS (cysteine pairing not given here; also: GFP fusion) [#38(G3A)] | – | 2.7 ± 0.2 | – | –
TSGALKLVQAKRKCCIS (cysteine pairing not given here; also: GFP fusion) [#38(L4A)] | – | 2.2 ± 0.1 | – | –
TSGLAKLVQAKRKCCIS (cysteine pairing not given here; also: GFP fusion) [#38(L5A)] | – | 1.9 ± 0.2 | – | –
TSGLLALVQAKRKCCIS (cysteine pairing not given here; also: GFP fusion) [#38(K6A)] | reduced anti-proliferative effect | 1.4 ± 0.1 | – | –
TSGLLKAVQAKRKCCIS (cysteine pairing not given here; also: GFP fusion) [#38(L7A)] | – | 2.0 ± 0.2 | – | –
TSGLLKLAQAKRKCCIS (cysteine pairing not given here; also: GFP fusion) [#38(V8A)] | – | 2.7 ± 0.2 | – | –
TSGLLKLVQAKRKACIS (not fully specified (N-terminus)) [#38(C14A)] | – | 1.1 ± 0.1 | – | –
TSGLLKLVQAKRKCCIS ({GFP}-TSGLLKLVQAKRKCCIS; not fully specified; cysteine pairing not given here) [#38, 17mer anti-proliferative peptide with CAAX box motif, tested fused to the C-terminus of GFP] | significant inhibitors of cell proliferation | 2.5 ± 0.2 | – | cell cycle profile (DNA content, Hoechst 33258) [2]: arrested in G0/G1; cell death after infection of retrovirus encoding GFP fused peptides [1]: did not observe massive cell death
synthetic #40 fused with seven Lys (K7) via a linker (GGEEAAKA) at the N-terminus [K7—#40] | – | – | – | number of observed cell nuclei remaining [3]: ca. 10 % of original values; cell cycle stage distribution [3]: depletion of G1 cells, a complete loss of S and G2 cells at 100 mM levels, and an increase in M phase cells; change of cellular localization of GFP fusion #41 [4]: these changes were not seen; apoptotic nuclei [5]: increase in apoptotic nuclei
synthetic #41 fused with seven Lys (K7) via a linker (GGEEAAKA) at the N-terminus [K7—#41] | – | – | – | number of observed cell nuclei remaining [3]: ca. 10 % of original values; cell cycle stage distribution [3]: G1 phase cells were depleted and the percent of M phase cells increased significantly; change of cellular localization of GFP fusion #41 [4]: punctuated localization of GFP and loss of GFP localization in the cell-cell contact area; apoptotic nuclei [5]: increase in apoptotic nuclei
